Literature values in US20050136438A1, “Genetic analysis for stratification of cancer risk” (priority 2003, published 2005).
Counter-ions that a name gives are not always drawn.

solubility in water: very slightly soluble
Compound: O=C(c1ccc(OCCN2CCCCC2)cc1)c1c(-c2ccc(O)cc2)sc2cc(O)ccc12 [Raloxifene HCl, methanone, [6-hydroxy-2-(4-hydroxyphenyl)benzo[b]thien-3-yl]-[4-[2-(1-piperidinyl)ethoxy]phenyl]-hydrochloride]
